# In patent publication US20240197588A1, “ANTIMICROBIAL COMPOSITION” (Conopco, Inc., d/b/a UNILEVER, priority 2021, published 2024):
# Experiments:
# [1] = Solubility of oil (detackifying agent) in 75/25 EtOH/Water; settings: neat detackifying agent
# Description: (§1) Detackifying agents desirable for use in the antimicrobial composition disclosed herein must meet the following criteria: the detackifying agent must be liquid, the detackifying agent must be soluble in at least a 75/25 or higher ratio of ethanol to water (EtOH/Water), which is to be reflective of solubility in the final composition resulting in a clear (i.e., transparent) final antimicrobial composition, and the detackifying agent must have no solvency for water.
# [2] = Physical state of detackifying agent at room temperature; format: physicochemical
# Description: RT in Table 4 refers to room temperature.
# [3] = Water solubility in oil (solvency of detackifying agent for water); settings: neat detackifying agent
# Description: as §1
# Finally, the preferred detackifying agent must itself not have solvency for water such that during application and on drying as the ethanol and water evaporate, the water is also allowed to quickly evaporate leaving behind only the oil and any skin benefit actives/moisturizers if present.
Compound,Solubility in 75/25 EtOH/Water [1],Oil (liquid or solid at RT) [2],Water solubility in detackifying agent [3]
Dicapryl maleate,<10%,Liquid,No
CCCCC(CC)COC(=O)CCCCCCCCC(=O)OCC(CC)CCCC (stereo not shown) [Diethyl hexyl sebacate],,Liquid,
CC(C)OC(=O)CCCCCCCCC(=O)OC(C)C [Diisopropyl sebacate],,Liquid,
CCCCC(CC)COC(=O)CCCCC(=O)OCC(CC)CCCC (stereo not shown) [Diethylhexyl adipate],<10%,Liquid,No
CCCCC(CC)COC(=O)CC(O)C(=O)OCC(CC)CCCC (stereo not shown) [Diethyl hexyl malate],,Liquid,

# The next lines start with the values.
Solubility in 75/25 EtOH/Water [1],Oil (liquid or solid at RT) [2],Water solubility in detackifying agent [3],Compound
>30%,Liquid,No,PPG15 Stearyl ether
>30%,Liquid,No,CCCCCCCCCCCCOC(=O)C(C)O (stereo not shown) [Lauryl lactate]
,Liquid,,CC(C)CCCCCCCCCCCCCCCO [Isostearyl alcohol]
>30%,Liquid,No,CC(C)OC(=O)CCCCC(=O)OC(C)C [Disopropyl adipate]
